Measured values as given in US20250026721A1, “COMPOUNDS AND METHODS FOR MODULATING RAS-PI3K” (Vividion Therapeutics, Inc., priority 2023, published 2025).

target: T1, PIK3CA (Homo sapiens, UniProt P42336); assay: In vitro ELISA target engagement assay for PIK3CA in Jurkat cellular lysate (competition with PIK3CA Biotin Probe); type: binding; conditions: 1 hour at rt, then 500 nM PIK3CA Biotin Probe, read-out: Elisa Target Engagement Assay (TE50)
T1 construct: endogenous in cells; host or cells: Jurkat cell lysate
T1 sequence (P42336 whole entry): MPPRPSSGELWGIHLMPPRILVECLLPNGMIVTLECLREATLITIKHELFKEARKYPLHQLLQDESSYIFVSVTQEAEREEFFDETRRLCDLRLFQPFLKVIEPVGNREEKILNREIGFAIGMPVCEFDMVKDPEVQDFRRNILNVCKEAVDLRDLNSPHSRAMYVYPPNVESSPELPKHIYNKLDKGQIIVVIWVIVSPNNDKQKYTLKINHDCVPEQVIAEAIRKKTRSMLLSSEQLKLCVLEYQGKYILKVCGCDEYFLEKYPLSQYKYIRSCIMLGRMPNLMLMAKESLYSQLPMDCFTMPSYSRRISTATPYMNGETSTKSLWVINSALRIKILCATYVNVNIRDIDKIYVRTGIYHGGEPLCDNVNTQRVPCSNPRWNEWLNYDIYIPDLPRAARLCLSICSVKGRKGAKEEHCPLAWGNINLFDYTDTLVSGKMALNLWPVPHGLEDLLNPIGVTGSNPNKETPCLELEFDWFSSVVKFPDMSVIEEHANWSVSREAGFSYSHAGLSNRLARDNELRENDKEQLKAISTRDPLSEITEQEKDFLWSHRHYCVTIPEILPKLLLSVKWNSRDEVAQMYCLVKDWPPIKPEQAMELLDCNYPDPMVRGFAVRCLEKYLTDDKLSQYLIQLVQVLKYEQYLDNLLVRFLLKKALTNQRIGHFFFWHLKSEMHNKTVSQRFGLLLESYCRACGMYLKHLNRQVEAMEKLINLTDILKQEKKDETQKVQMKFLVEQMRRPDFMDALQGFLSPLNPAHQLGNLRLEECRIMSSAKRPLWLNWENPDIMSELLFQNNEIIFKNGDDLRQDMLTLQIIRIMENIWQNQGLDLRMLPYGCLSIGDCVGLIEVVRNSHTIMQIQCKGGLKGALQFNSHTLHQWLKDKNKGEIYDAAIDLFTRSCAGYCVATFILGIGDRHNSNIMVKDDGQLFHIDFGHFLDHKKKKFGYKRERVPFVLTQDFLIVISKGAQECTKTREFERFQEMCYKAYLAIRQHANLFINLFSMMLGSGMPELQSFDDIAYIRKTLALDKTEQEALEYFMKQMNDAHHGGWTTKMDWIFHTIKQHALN
T1 sequence (P27986 whole entry partner): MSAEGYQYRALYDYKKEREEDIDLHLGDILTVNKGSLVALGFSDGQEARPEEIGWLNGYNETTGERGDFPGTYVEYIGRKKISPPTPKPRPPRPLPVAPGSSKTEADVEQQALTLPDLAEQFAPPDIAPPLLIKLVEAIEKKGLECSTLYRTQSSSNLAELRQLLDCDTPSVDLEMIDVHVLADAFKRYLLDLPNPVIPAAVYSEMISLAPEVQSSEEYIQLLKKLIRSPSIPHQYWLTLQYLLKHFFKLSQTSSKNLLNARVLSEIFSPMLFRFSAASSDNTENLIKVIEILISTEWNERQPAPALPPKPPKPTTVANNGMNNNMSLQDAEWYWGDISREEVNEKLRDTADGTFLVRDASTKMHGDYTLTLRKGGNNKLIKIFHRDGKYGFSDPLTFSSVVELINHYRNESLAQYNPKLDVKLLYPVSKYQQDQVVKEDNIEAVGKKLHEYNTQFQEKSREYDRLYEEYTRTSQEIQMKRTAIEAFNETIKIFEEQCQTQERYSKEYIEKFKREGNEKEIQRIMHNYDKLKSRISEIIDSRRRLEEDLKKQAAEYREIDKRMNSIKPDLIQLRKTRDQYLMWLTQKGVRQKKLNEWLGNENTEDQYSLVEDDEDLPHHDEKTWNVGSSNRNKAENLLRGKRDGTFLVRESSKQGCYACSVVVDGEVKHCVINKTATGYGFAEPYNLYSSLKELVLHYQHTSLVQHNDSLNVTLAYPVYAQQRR
Summary of the method: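 Jurkat lysate from sonicated frozen cells was preincubated 1 h at rt with serially diluted compound up to 200 μM, then labelled 1 h at rt with PIK3CA biotin probe at 500 nM final. Probe-bound PIK3CA was captured on antibody-coated plates and detected with Neutravidin-HRP luminescence; TE50 derived from the dose response.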

Row | SMILES | IC50 [nM]
1 | C[C@H](/C=C\S(C)(=O)=O)NC(=O)C1(F)CCN(C(=O)[C@H]2CN(CC(F)(F)C(F)(F)F)C[C@H]2c2ccccc2Cl)CC1 [Compound 182, 1-((3R,4R)-4-(2-chlorophenyl)-1-(2,2,3,3,3-pentafluoropropyl)pyrrolidine-3-carbonyl)-4-fluoro-N-((R,Z)-4-(methylsulfonyl)but-3-en-2-yl)piperidine-4-carboxamide] | 910
2 | CC(C)OC(=O)N1C[C@H](c2ccccc2Cl)[C@H](C(=O)N2CCC(F)(C(=O)N[C@H](C)/C=C\S(C)(=O)=O)CC2)C1 [Compound 199, isopropyl (3S,4S)-3-(2-chlorophenyl)-4-(4-fluoro-4-(((R,Z)-4-(methylsulfonyl)but-3-en-2-yl)carbamoyl)piperidine-1-carbonyl) pyrrolidine-1-carboxylate] | 900
3 | C[C@H](/C=C\S(C)(=O)=O)NC(=O)C1(F)CCN(S(=O)(=O)c2cnc(C(F)(F)F)cc2-c2cccc(F)c2Cl)CC1 [Compound 209, (R,Z)-1-((4-(2-chloro-3-fluorophenyl)-6-(trifluoromethyl)pyridin-3-yl)sulfonyl)-4-fluoro-N-(4-(methylsulfonyl)but-3-en-2-yl)piperidine-4-carboxamide] | 240
4 | C[C@H](/C=C\S(C)(=O)=O)NC(=O)C1(F)CCN(S(=O)(=O)c2cnc(C(F)(F)F)cc2-c2ccc(F)cc2Cl)CC1 [Compound 211, (R,Z)-1-((4-(2-chloro-4-fluorophenyl)-6-(trifluoromethyl)pyridin-3-yl)sulfonyl)-4-fluoro-N-(4-(methylsulfonyl)but-3-en-2-yl)piperidine-4-carboxamide] | 1000
5 | C[C@@H](/C=C\S(C)(=O)=O)NC(=O)C1(F)CCN(S(=O)(=O)c2cnc(C(F)(F)F)cc2-c2ccc(F)cc2Cl)CC1 [Compound 212, (S,Z)-1-((4-(2-chloro-4-fluorophenyl)-6-(trifluoromethyl)pyridin-3-yl)sulfonyl)-4-fluoro-N-(4-(methylsulfonyl)but-3-en-2-yl)piperidine-4-carboxamide] | 380
6 | C[C@H](/C=C\S(C)(=O)=O)NC(=O)[C@]1(F)CCN(S(=O)(=O)c2cnc(C(F)(F)F)cc2-c2ccccc2Cl)[C@H](C)C1 [Compound 214, (2R,4S)-1-((4-(2-chlorophenyl)-6-(trifluoromethyl)pyridin-3-yl)sulfonyl)-4-fluoro-2-methyl-N-((R,Z)-4-(methylsulfonyl)but-3-en-2-yl)piperidine-4-carboxamide] | 220
7 | C[C@H](/C=C/C(=O)N1CC(F)(F)C1)NC(=O)[C@]1(F)CCN(S(=O)(=O)c2cnc(C(F)(F)F)cc2-c2ccccc2Cl)[C@H](C)C1 [Compound 215, (2R,4S)-1-((4-(2-chlorophenyl)-6-(trifluoromethyl)pyridin-3-yl)sulfonyl)-N-((R,E)-5-(3,3-difluoroazetidin-1-yl)-5-oxopent-3-en-2-yl)-4-fluoro-2-methylpiperidine-4-carboxamide] | 490
8 | N#C/C=C/CNC(=O)C1(F)CCN(S(=O)(=O)c2cnc(Cl)cc2-c2ccccc2Cl)CC1 [Compound 232, (E)-1-((6-chloro-4-(2-chlorophenyl)pyridin-3-yl)sulfonyl)-N-(3-cyanoallyl)-4-fluoropiperidine-4-carboxamide] | 520
9 | O=C(NCC1=CS(=O)(=O)C1)C1(F)CCN(S(=O)(=O)c2ccc(Br)cc2-c2ccccc2Cl)CC1 [Compound 233, 1-((5-bromo-2′-chloro-[1,1′-biphenyl]-2-yl)sulfonyl)-N-((1,1-dioxido-2H-thiet-3-yl)methyl)-4-fluoropiperidine-4-carboxamide] | 290
10 | COc1ccc(S(=O)(=O)N2CCC(F)(C(=O)N[C@H](C)C3=CS(=O)(=O)C3)CC2)c(-c2ccccc2Cl)c1 [Compound 235, (R)-1-((2′-chloro-5-methoxy-[1,1′-biphenyl]-2-yl)sulfonyl)-N-(1-(1,1-dioxido-2H-thiet-3-yl)ethyl)-4-fluoropiperidine-4-carboxamide] | 370
